Test results from patent US6713274B2, “Method for identifying modulators of sulfotransferase activity” (The Regents of the University of California, priority 2002, dated 2004).

Assays:
[1] = biological target: T1, sulfotransferase domain of human NDST-1 (Homo sapiens, UniProt P52848); assay: Dot-blot assay for NDST-1 (sulfation of de-N-sulfated heparin with 35S-PAPS); type: biochemical; conditions: FIG. 5A Lineweaver-Burk plot
T1 construct: A plasmid containing the sulfotransferase domain of human NDST-1 fused to glutathione S-transferase; glutathione S-transferase (cleaved yes); made in house
T1 sequence (P52848 599-882 limits assumed): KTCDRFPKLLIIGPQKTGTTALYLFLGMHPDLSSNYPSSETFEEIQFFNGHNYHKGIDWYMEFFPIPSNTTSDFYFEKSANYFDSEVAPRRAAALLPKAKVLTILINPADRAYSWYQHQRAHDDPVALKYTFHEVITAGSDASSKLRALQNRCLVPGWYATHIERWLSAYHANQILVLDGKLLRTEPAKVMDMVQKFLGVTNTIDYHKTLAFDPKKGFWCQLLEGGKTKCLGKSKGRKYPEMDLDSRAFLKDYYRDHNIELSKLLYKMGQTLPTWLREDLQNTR
Experimental: For the NDST-1 assay, de-N-sulfated heparin (0.02-0.1 mg) and 0.1 μg of enzyme were added to 50 mM HEPES-NaOH (pH 7.0), 0.15 M NaCl, 0.75 mg/mL protamine, 0.4% Triton X-100, 15% glycerol in a total volume of 25 μL in a 96-well plate. Reactions were initiated with 0.15 μM ^35S-labeled PAPS (“^35S-PAPS”)(0.1-0.5 μCi per reaction), incubated at 25° C. for 15 min, and terminated by the addition of 30 μL of MeOH. A 15-μL aliquot was removed from each well and diluted 100-fold, and 15-25 μL were then transferred to the wells of the dot-blot apparatus. A vacuum was applied, and the wells were washed and eluted as described below. Control reactions with heat-killed (100° C., 5 min) enzyme were included to monitor background binding of ^35S-PAPS and ^35S-SO4^2− to the membrane after washing.
(§1) Hybond-N+ membranes were pre-wetted with H2O and Hybond-P membranes were pre-wetted with MeOH before assembling the dot-blot apparatus. The quenched and diluted reactions were added to the wells, and a vacuum was applied to load products onto the membrane. To elute ^35S-PAPS while retaining ^35S-labeled heparin or GlcNAc-PAA on the membrane, the wells were washed twice with 40 μL of PAPS elution buffer (EB) ((NH4)2SO4 pH 3.0), while maintaining a gentle vacuum. […] The amount of ^35S-labeled product associated with the membrane was then quantified by phosphorimaging.

[2] = biological target: T2, GST-3 (Homo sapiens, UniProt Q8NCG5); assay: Dot-blot assay for GST-3 (sulfation of β-GlcNAc-PAA with 35S-PAPS); type: biochemical; conditions: FIG. 5B Lineweaver-Burk plot
T2 sequence (Q8NCG5 1-386): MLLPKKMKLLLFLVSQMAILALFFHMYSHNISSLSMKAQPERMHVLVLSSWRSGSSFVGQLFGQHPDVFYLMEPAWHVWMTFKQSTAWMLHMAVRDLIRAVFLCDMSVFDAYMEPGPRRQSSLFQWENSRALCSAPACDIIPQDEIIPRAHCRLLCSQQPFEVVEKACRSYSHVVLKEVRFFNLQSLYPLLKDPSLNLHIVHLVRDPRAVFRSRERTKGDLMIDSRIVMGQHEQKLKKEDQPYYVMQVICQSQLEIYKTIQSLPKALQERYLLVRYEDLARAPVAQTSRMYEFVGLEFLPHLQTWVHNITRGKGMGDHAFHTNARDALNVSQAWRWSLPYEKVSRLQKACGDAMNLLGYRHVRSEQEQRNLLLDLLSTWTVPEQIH
Experimental: A typical assay included an appropriate volume of enzyme solution, 0.6-1.0 μg of β-GlcNAc-PAA, 0.1% Triton X-100, 10% glycerol, 4 mM Mg(OAc)2, 10 mM NaF, 1 mM ATP, in 30 mM HEPES-NaOH (pH 6.0), diluted to a total volume of 25 μL in a 96-well plate. Reactions were initiated with 2.0 μM ^35S-PAPS (0.1-0.5 μCi per reaction), incubated at 25° C. for 2 h, and terminated with 30 μL of MeOH. A 15-μL aliquot was removed from each well and diluted 100-fold, and 15-25 μL of the solution were transferred to the wells of the dot-blot apparatus. A vacuum was applied, and the wells were washed and eluted as described below. Control reactions with heat-killed enzyme were included to monitor background binding of ^35S-PAPS and ^35S-SO4^2− to the membrane after washing.
as §1

mode of enzyme inhibition (double reciprocal plots of signal versus PAPS concentration) [1]: competitive inhibitor | mode of enzyme inhibition (double reciprocal plots of signal versus PAPS concentration) [2]: competitive inhibitor
Structure (SMILES): Nc1ncnc2c1ncn2[C@@H]1O[C@H](COP(=O)(O)O)[C@@H](OP(=O)(O)O)[C@H]1O [3′,5′-ADP]
